Source: ChEMBL document CHEMBL5126578, “Organocatalyzed umpolung addition for synthesis of heterocyclic-fused arylidene-imidazolones as anticancer agents” (Bioorg Med Chem, 2022)
Blank lines part the entries; values can stand above or below the molecule they belong to. The source made the active and inactive calls. No cut-off for these calls is given here.

Tests used:
HeLa = assay: Antiproliferative activity against human HeLa cells for 24 hrs by MTT assay; type: functional, cell-based
[1] = biological target: Epidermal growth factor receptor (Homo sapiens, UniProt P00533); assay: Inhibition of EGFR (unknown origin) assessed as kinase activity by measuring ATP remaining for 40 mins in presence of ATP by Kinase-Glo Plus luminescence kinase assay
MCF7 [2] = assay: Antiproliferative activity against human MCF7 cells assessed as reduction in cell viability incubated for 48 hrs by MTT assay; type: functional, cell-based; settings: MCF7, 48 h
MDA-MB-231 [3] = assay: Antiproliferative activity against human MDA-MB-231 cells for 48 hrs by MTT assay; type: functional, cell-based; settings: MDA-MB-231, 48 h
[4] = Antiproliferative activity against VEGF-stimulated human Endothelial cells pre-incubated for 2 hrs followed by stimulation with human VEGF, bFGF and FBS for 18 hrs and measured after 28 hrs by AlamarBlue assay; type: functional, cell-based; settings: Endothelial cell
MCF7 [5] = assay: Induction of cell cycle arrest in human MCF7 cells assessed as accumulation at Sub-G1 phase at 4.2 uM for 48 hrs by PI staining based flow cytometry (Rvb= 0.9%); type: functional
MCF7 [6] = assay: Induction of apoptosis in human MCF7 cells assessed as increase in number of apoptotic nuclei at 4.2 to 5.5 uM for 48 hrs by DAPI staining based fluorescence microscopy; type: functional, cell-based; settings: dose 4.2-5.5 µM
MCF7 [7] = assay: Inhibition of human DNA topoisomerase activity in human MCF cells nuclear lysate assessed mediated supercoiled plasmid DNA relaxation by analyzing migration of supercoiled DNA at 0.9 uM by agarose gel electrophoresis; type: subcellular
[8] = Cytotoxicity against human MCF-10A cells assessed as reduction in cell viability for 48 hrs by MTT assay; type: toxicity, cell-based
MCF7 [9] = assay: Induction of cell cycle arrest in human MCF7 cells assessed as accumulation at G2/M phase at 4.2 uM for 48 hrs by PI staining based flow cytometry (Rvb= 21.4%); type: functional
MCF7 [10] = assay: Induction of cell cycle arrest in human MCF7 cells assessed as accumulation at S phase at 4.2 uM for 48 hrs by PI staining based flow cytometry(Rvb= 4.6%); type: functional
MCF7 [11] = assay: Induction of apoptosis in human MCF7 cells assessed as fold change as increase in Bax protein expression level at 5.5 uM by Western blot analysis; type: functional
HEK-293T = assay: Antiproliferative activity against human HEK293T cells assessed as reduction in cell viability for 48 hrs by MTT assay; type: functional, cell-based
MCF7 [12] = assay: Induction of apoptosis in human MCF7 cells assessed as fold change as decrease in BCL-XL protein expression level at 5.5 uM by Western blot analysis; type: functional
MCF7 [13] = assay: Induction of apoptosis in human MCF7 cells assessed as fold change as decrease in BCL-XL protein expression level at 4.2 uM by Western blot analysis; type: functional
MCF7 [14] = assay: Induction of cell cycle arrest in human MCF7 cells assessed as accumulation at G1 phase at 4.2 uM for 48 hrs by PI staining based flow cytometry (Rvb= 73.1%); type: functional
MCF7 [15] = assay: Induction of apoptosis in human MCF7 cells assessed as upregulation of Caspase-3 expression level at 4.2 to 5.5 uM by TRIT-C staining based fluorescence microscopy; type: functional, cell-based; settings: dose 4.2-5.5 µM
MDA-MB-231 [16] = assay: Antiproliferative activity against human MDA-MB-231 cells assessed as reduction in cell viability for 48 hrs by MTT assay; type: functional, cell-based; settings: MDA-MB-231, 48 h
MCF7 [17] = assay: Induction of apoptosis in human MCF7 cells assessed as fold change as increase in Bax protein expression level at 4.2 uM by Western blot analysis; type: functional
[18] = Antiproliferative activity against human H357 cells assessed as reduction in cell viability for 48 hrs by MTT assay; type: functional, cell-based; settings: H357, 48 h
MCF7 [19] = assay: Induction of cell cycle arrest in human MCF7 cells assessed as accumulation at G2/M phase at 3.8 uM for 48 hrs by PI staining based flow cytometry (Rvb= 21.4%); type: functional
MCF7 [20] = assay: Induction of cell cycle arrest in human MCF7 cells assessed as accumulation at S phase at 3.8 uM for 48 hrs by PI staining based flow cytometry (Rvb=4.6%); type: functional
MCF7 [21] = assay: Induction of apoptosis in human MCF7 cells assessed as increase in number of apoptotic nuclei at 3.8 to 5 uM for 48 hrs by DAPI staining based fluorescence microscopy; type: functional, cell-based; settings: dose 3.8-5 µM
MCF7 [22] = assay: Inhibition of human DNA topoisomerase activity in human MCF cells nuclear lysate assessed mediated supercoiled plasmid DNA relaxation by analyzing migration of supercoiled DNA at 1 uM by agarose gel electrophoresis; type: subcellular
MCF7 [23] = assay: Induction of apoptosis in human MCF7 cells assessed as fold change as decrease in BCL-XL protein expression level at 3.8 uM by Western blot analysis; type: functional
MCF7 [24] = assay: Induction of apoptosis in human MCF7 cells assessed as fold change as increase in Bax protein expression level at 5 uM by Western blot analysis; type: functional
MCF7 [25] = assay: Induction of apoptosis in human MCF7 cells assessed as fold change as decrease in BCL-XL protein expression level at 5 uM by Western blot analysis; type: functional
MCF7 [26] = assay: Induction of cell cycle arrest in human MCF7 cells assessed as accumulation at G1 phase at 3.8 uM for 48 hrs by PI staining based flow cytometry (Rvb= 73.1%); type: functional
MCF7 [27] = assay: Induction of apoptosis in human MCF7 cells assessed as upregulation of Caspase-3 expression level at 3.8 to 5 uM by TRIT-C staining based fluorescence microscopy; type: functional, cell-based; settings: dose 3.8-5 µM
MCF7 [28] = assay: Induction of apoptosis in human MCF7 cells assessed as fold change as increase in Bax protein expression level at 3.8 uM by Western blot analysis; type: functional
MCF7 [29] = assay: Induction of cell cycle arrest in human MCF7 cells assessed as accumulation at Sub-G1 phase at 3.8 uM for 48 hrs by PI staining based flow cytometry (Rvb= 0.9%); type: functional
MCF7 [30] = assay: Inhibition of human DNA topoisomerase activity in human MCF cells nuclear lysate assessed mediated supercoiled plasmid DNA relaxation by analyzing migration of supercoiled DNA at 0.5 uM by agarose gel electrophoresis; type: subcellular

Epidermal growth factor receptor, sequence (P00533 whole entry): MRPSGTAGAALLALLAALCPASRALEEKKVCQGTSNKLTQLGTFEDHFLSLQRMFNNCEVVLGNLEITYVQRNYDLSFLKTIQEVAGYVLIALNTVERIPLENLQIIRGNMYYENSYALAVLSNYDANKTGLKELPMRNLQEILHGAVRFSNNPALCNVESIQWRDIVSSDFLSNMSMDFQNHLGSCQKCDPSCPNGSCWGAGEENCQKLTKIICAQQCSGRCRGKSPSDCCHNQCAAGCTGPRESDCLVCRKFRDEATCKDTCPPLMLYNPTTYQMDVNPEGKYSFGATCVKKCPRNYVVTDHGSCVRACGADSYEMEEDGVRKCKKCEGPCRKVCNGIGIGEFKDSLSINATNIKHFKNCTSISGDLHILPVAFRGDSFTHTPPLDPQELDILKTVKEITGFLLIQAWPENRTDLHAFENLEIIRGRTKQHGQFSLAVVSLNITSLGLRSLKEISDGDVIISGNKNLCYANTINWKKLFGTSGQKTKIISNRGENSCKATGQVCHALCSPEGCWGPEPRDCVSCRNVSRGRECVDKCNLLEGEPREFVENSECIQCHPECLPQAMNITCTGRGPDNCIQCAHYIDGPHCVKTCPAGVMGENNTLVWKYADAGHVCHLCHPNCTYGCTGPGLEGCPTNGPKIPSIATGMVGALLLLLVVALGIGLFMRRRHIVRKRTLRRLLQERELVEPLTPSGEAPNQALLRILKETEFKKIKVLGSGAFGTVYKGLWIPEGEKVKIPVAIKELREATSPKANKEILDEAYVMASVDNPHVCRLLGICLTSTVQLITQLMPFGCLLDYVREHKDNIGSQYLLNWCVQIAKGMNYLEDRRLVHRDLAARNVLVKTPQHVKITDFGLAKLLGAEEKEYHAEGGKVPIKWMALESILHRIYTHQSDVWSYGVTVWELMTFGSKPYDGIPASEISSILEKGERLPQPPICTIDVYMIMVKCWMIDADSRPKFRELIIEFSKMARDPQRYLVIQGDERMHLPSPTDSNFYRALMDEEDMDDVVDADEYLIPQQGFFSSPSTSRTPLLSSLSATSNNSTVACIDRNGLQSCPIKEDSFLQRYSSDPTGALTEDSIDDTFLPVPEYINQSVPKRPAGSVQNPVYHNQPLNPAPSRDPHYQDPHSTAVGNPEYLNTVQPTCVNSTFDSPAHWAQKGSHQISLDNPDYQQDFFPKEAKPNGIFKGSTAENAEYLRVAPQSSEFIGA

IC50 (HeLa): 0.42 µM | IC50 [1]: 55 µM
Structure (SMILES): O=C(Cc1csc2nc3ccccc3n12)Nc1cccc2ccccc12

IC50 (MCF7 [2]): 9.7 µM
Structure (SMILES): O=C1/C(=C/c2ccccc2)N=C2Sc3cc(Br)ccc3N12

IC50 (MCF7 [2]): 10 µM
Structure (SMILES): COC1=CC2=N/C(=C\c3cc(OC)c(OC)c(OC)c3)C(=O)N2C=C1

IC50 (MCF7 [2]): 8.9 µM
Structure (SMILES): CCOC(=O)Oc1c(OC)cc(/C=C2\N=C3C=C(OC)C=CN3C2=O)cc1OC

IC50 (MCF7 [2]): 9.7 µM
Structure (SMILES): O=C1/C(=C/c2ccccc2)N=C2C(O)=CC=CN12

IC50 (MCF7 [2]): 10 µM
Structure (SMILES): COc1ccc2c(c1)SC1=N/C(=C\c3ccccc3)C(=O)N12

IC50 (MCF7 [2]): 7.8 µM
Structure (SMILES): COc1ccc(/C=C2\N=C3Sc4cccc(OC)c4N3C2=O)cc1

IC50 (MCF7 [2]): 9.7 µM
Structure (SMILES): COC1=CC(OC)=NC2=N/C(=C\c3ccccc3)C(=O)N12

IC50 (MDA-MB-231 [3]): 1.2 µM
Structure (SMILES): COc1ccc2c(c1)sc1nc(/C=C/C(=O)c3ccc(OC)c(O)c3)cn12

IC50 (MCF7 [2]): 9.9 µM
Structure (SMILES): COC1=CC2=N/C(=C\c3ccccc3)C(=O)N2C=C1

IC50 (MCF7 [2]): 10 µM
Structure (SMILES): COc1ccc(/C=C2\N=C3C(O)=CC=CN3C2=O)cc1

IC50 (MCF7 [2]): 4.5 µM
Structure (SMILES): COc1cccc2c1N1C(=O)/C(=C/c3ccccc3)N=C1S2

IC50 (MCF7 [2]): 9.9 µM
Structure (SMILES): O=C1/C(=C/c2ccccc2)N=C2N=CC=CN12

IC50 (MCF7 [2]): 9.8 µM
Structure (SMILES): Cc1cccc2c1N1C(=O)/C(=C/c3ccccc3)N=C1S2

IC50 (HeLa): 0.42 µM | IC50 [1]: 55 µM
Structure (SMILES): O=C(Cc1csc2nc3ccccc3n12)Nc1cccc(O)c1

IC50 (MCF7 [2]): 5.2 µM
Structure (SMILES): O=C1/C(=C/c2ccc(Cl)cc2)N=C2C(O)=CC=CN12

IC50 (MCF7 [2]): 10 µM
Structure (SMILES): O=C1/C(=C/c2ccccc2)N=C2C([N+](=O)[O-])=CC(Br)=CN12

IC50 (MCF7 [2]): 7.5 µM
Structure (SMILES): COc1ccc(/C=C2\N=C3Sc4cccc(O)c4N3C2=O)cc1

IC50 (MCF7 [2]): 9.4 µM
Structure (SMILES): O=C1/C(=C/c2ccccc2)N=C2Sc3ccccc3N12

IC50 (MCF7 [2]): 9.2 µM
Structure (SMILES): O=C1/C(=C/c2ccccc2)N=C2C=C(O)C=CN12

IC50 (MCF7 [2]): 10 µM
Structure (SMILES): O=C1/C(=C/c2ccccc2)N=C2C(Br)=CC(Br)=CN12

Structure (SMILES): CCN(CC)CCOc1cccc(-c2cn3c(n2)sc2ccccc23)c1
IC50 [4]: 0.0039 µM

IC50 (MCF7 [2]): 9.8 µM
Structure (SMILES): COC1=CC2=N/C(=C\c3ccc(OC)cc3)C(=O)N2C=C1

inhibition (MCF7 [7]): Active | IC50 (MCF7 [2]): 4.2 µM | IC50 (MDA-MB-231 [16]): 5.4 µM
Structure (SMILES): O=C1/C(=C/c2ccc(Cl)cc2)N=C2Sc3cccc(O)c3N12
Activity (MCF7 [5]): 4.3% | Activity (MCF7 [6]): Active | IC50 at 48 h [8]: 40 µM | Activity (MCF7 [9]): 9.6% | Activity (MCF7 [10]): 24.8% | fold change (FC) (MCF7 [11]): 6 | IC50 (HEK-293T): 5.8 µM | fold change (FC) (MCF7 [12]): 10 | fold change (FC) (MCF7 [13]): 2.5 | Activity (MCF7 [14]): 61.3% | Activity (MCF7 [15]): Active | fold change (FC) (MCF7 [17]): 3.5 | IC50 [18]: 5 µM

IC50 (MCF7 [2]): 10 µM
Structure (SMILES): CC1=CN2C(=O)/C(=C/c3ccccc3)N=C2C=C1

IC50 (MCF7 [2]): 9 µM
Structure (SMILES): O=C1/C(=C/c2ccccc2)N=C2C=CC([N+](=O)[O-])=CN12

IC50 (MCF7 [2]): 9.8 µM
Structure (SMILES): CC1=CC=CN2C(=O)/C(=C/c3ccccc3)N=C12

inhibition (MCF7 [22]): Active | IC50 (MCF7 [2]): 3.8 µM | IC50 (MDA-MB-231 [16]): 4 µM
Structure (SMILES): O=C1/C(=C/c2ccccc2)N=C2Sc3cccc(O)c3N12
Activity (MCF7 [19]): 17.2% | Activity (MCF7 [20]): 36.4% | IC50 at 48 h [8]: 35 µM | Activity (MCF7 [21]): Active | fold change (FC) (MCF7 [23]): 2 | fold change (FC) (MCF7 [24]): 5 | IC50 (HEK-293T): 4.2 µM | fold change (FC) (MCF7 [25]): 10 | Activity (MCF7 [26]): 37.5% | Activity (MCF7 [27]): Active | fold change (FC) (MCF7 [28]): 2 | Activity (MCF7 [29]): 8.9% | IC50 [18]: 4.8 µM

inhibition (MCF7 [30]): Active
Structure (SMILES): COc1cc([C@@H]2c3cc4c(cc3[C@@H](O[C@@H]3O[C@@H]5CO[C@@H](C)O[C@H]5[C@H](O)[C@H]3O)[C@H]3COC(=O)[C@H]23)OCO4)cc(OC)c1O [ETOPOSIDE]
IC50 at 48 h [8]: 102 µM | IC50 (HEK-293T): 28 µM | IC50 [18]: 32 µM

IC50 (MCF7 [2]): 9.8 µM
Structure (SMILES): O=C1/C(=C/c2ccccc2)N=C2C=CC=CN12
